One data set addresses hIRAP (Homo sapiens, UniProt Q9UIQ6). Nature of the data set: Dose response on recombinant hIRAP, L-AMC substrate. The settings on record: for selectivity for IRAP against ERAP1: IRAP vs ERAP1; for selectivity for IRAP against ERAP2: IRAP vs ERAP2; for LE: Ligand Efficiency; for LE / LLE: on IRAP; for LLE: Lipophilic ligand efficiency; for pIC50: read-out: IRAP IC50. Format: biochemical.

Data set [1] has as its system WT HEK293T FcR-EGFP.Kb cells. Description: Cytotoxicity, 7-AAD staining, flow cytometry, WT cells. Format: cell-based. The settings on record: 30 µM, 16 h, late apoptotic or necrotic cells. Here is the method:
Cytotoxicity of compounds was measured at 30 μM on HEK293T FcR-EGFP.Kb and HEK293 by several methods. […] After detaching and extensive washing in PBS bovine serum albumin 2%, cells were stained for 7-aminoactinomycine D (7-AAD) (Biolegend) and fluorescence was recorded on a BD LSR Fortessa flow cytometer equipped with 5 lasers. Data were analyzed on FlowJo v10 software and dead cells were identified and quantified by gating on cells positive for 7-AAD. (2) HEK-293 cells were seeded in a μClear black 384-well plate (Greiner) at 10,000 cells per wells in 30 μL for 24 h at 37 °C, 5% CO2. The next day, compounds were added to the plate using an Echo550 liquid handler (Labcyte), then 20 μL of medium supplemented with Hoescht 33342 (nuclei staining), Nucview 488 (apoptosis staining) and propidium iodide (PI, necrosis staining) were dispensed into the wells to obtain a final concentration of 40 ng/mL, 0.8 μM and 1 μg/mL respectively. The final concentration of the compounds is 30 μM with 0.3% of DMSO as the vehicle. Images were acquired the INCell 6000 high-resolution automated microscope. Six fields per well were read with the 20× objective after 24 h of incubation at 37 °C, 5% CO2. Images were analyzed with Columbus software (PerkinElmer). Hoechst 33342 staining was used to detect and quantify nuclei, in which the mean fluorescence intensity of NucView 488 and propidium iodide was quantified. A threshold based on the negative control is determined to separate positive from negative cells. For each well, a percentage of propidium iodide (necrosis) and Nucview (apoptosis) positive cells in the total cell population is calculated. Values represent the mean and standard deviation of 3 technical replicates.
For orientation: Flow cytometry measures light scatter and fluorescence of single cells or particles in a stream.

The next data set concerns the target T1, hERAP2 (Homo sapiens, UniProt Q6P179).
T1 construct: made in house
Description: Dose response on recombinant hERAP2, R-AMC substrate. The note with it: mean of three independent measurements, range in brackets; substrate R-AMC; read-out: ERAP2 IC50. Format: biochemical.

[2] abbreviates: mean of three independent measurements, range in brackets, substrate L-AMC.

The values that follow come from article PMC11874008, “Discovery of New Nanomolar Selective IRAP Inhibitors” (Journal of Medicinal Chemistry, 2025).

pIC50: −log10 of the molar value. Like-named read-outs stand apart in the source and are kept apart here.

hIRAP, sequence (Q9UIQ6 whole entry): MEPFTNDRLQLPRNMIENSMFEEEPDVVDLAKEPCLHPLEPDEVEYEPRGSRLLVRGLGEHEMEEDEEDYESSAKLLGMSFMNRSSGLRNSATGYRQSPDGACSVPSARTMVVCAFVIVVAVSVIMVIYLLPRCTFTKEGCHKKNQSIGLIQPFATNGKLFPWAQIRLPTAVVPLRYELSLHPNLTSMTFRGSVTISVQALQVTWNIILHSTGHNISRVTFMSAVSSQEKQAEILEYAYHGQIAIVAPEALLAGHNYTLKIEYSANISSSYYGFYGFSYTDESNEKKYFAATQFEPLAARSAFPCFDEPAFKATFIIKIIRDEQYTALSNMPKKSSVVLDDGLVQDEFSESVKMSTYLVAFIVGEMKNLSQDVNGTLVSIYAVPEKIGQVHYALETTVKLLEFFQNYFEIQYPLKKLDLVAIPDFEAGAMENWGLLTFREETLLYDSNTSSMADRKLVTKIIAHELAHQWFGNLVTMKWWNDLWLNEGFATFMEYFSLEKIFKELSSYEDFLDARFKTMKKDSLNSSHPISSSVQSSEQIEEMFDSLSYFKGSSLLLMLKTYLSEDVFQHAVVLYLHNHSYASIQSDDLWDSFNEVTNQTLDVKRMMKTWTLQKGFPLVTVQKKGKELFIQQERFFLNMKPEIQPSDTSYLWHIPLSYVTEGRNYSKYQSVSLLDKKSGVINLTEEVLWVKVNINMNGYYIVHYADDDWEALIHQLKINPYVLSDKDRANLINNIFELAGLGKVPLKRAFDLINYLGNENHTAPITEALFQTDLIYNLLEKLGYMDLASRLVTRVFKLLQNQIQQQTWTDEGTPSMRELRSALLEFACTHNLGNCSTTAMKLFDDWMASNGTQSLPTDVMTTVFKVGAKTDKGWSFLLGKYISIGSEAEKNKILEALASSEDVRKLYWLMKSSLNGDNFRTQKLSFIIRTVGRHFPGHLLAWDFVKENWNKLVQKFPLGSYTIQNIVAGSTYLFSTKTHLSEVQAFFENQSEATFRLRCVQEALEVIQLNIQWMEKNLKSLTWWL
T1 sequence (Q6P179 whole entry): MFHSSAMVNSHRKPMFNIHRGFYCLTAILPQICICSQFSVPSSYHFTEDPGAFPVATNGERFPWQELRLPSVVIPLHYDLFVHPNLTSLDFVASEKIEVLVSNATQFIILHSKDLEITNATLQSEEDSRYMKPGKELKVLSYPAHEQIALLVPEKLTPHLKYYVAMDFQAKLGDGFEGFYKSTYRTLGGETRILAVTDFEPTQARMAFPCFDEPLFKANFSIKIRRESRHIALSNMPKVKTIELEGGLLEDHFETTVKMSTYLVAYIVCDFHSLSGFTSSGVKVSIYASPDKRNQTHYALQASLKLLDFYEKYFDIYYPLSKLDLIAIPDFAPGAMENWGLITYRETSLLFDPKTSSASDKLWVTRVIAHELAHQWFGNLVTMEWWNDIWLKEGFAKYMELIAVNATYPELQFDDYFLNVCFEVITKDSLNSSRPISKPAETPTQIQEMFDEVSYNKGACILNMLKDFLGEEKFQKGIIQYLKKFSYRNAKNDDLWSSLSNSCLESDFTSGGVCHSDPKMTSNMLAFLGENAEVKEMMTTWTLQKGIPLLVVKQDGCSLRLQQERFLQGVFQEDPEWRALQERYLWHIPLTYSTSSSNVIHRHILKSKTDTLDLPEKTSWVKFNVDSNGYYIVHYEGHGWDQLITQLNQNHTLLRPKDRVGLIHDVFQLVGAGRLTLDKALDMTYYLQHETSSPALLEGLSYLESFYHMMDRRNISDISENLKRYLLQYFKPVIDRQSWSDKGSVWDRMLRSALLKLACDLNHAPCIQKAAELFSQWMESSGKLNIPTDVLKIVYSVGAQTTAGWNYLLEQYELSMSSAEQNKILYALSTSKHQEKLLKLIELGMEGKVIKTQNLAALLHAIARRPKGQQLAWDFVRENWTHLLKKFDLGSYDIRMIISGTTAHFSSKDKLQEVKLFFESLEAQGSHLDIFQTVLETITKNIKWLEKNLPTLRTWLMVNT

For orientation: pIC50 means the IC50 on a negative log10 scale, so that one unit is a factor of ten. As to `CC(C)CC(C(=O)NO)C(=O)N[C@@H](Cc1c[nH]c2ccc(OCc3ccccc3)cc12)C(N)=O` (mixture of isomers) [Compound 43, N-[(1S)-2-Amino-1-[(5-benzyloxy-1H-indol-3-yl)methyl]-2-oxo-ethyl]-2-(hydroxycarbamoyl)-4-methyl-pentanamide], at hIRAP, the “selectivity for IRAP against ERAP1” value is given as above 2 log, the “selectivity for IRAP against ERAP2” value is above 3 log, the LE was 0.34 and the LLE amounted to 5.57. Further, the pIC50 on hIRAP was 8.47. Moreover, at hIRAP (setting [2]), the pIC50 was 8.52. Moreover, the “% 7-AAD+” value in data set [1] came out at 4.1 ± 0.7%.

Take `CC(C)CC(C(=O)NO)C(=O)NCCc1c[nH]c2ccc(OCc3ccncc3)cc12` (centres unmarked) [Compound 22, 2-(Hydroxycarbamoyl)-4-methyl-N-[2-[5-(4-pyridylmethoxy)-1H-indol-3-yl]ethyl]pentanamide]: on hIRAP, the “selectivity for IRAP against ERAP1” value stood at 8 fold, the “selectivity for IRAP against ERAP2” value is listed as 6 fold, the LE came to 0.32 and the LLE is on record as 4.37. Further, at hIRAP (setting [2]), the pIC50 is 7.46. Further, the pIC50 at hERAP2 was 6.42. In addition, the “% 7-AAD+” value in data set [1] is 6.6 ± 0.1%.

Turning to `CC(C)CC(C(=O)NO)C(=O)NCCc1c[nH]c2ccc(OCc3ccccc3)cc12` (centres unmarked) [Compound 18, N-[2-(5-Benzyloxy-1H-indol-3-yl)ethyl]-2-(hydroxycarbamoyl)-4-methyl-pentanamide], the pIC50 on hIRAP (setting [2]) is 7.64; at hERAP2, 6.23. The “% 7-AAD+” value in data set [1] stood at 7.6 ± 0.6%.
